The values that follow come from publication PMC12006171, “Marsupial cathelicidins: characterization, antimicrobial activity and evolution in this unique mammalian lineage” (Frontiers in Immunology, 2025).

Values after ≈ are worked out from the molar mass of the structure shown. Like-named read-outs stand apart in the source and are kept apart here. Where a SMILES comes first, the peptide text is derived from it.

Holding throughout (assay type): cell-based
For experiment [1], the system named is Escherichia coli ATCC 25922. Nature of the experiment: microbe, parasite or virus in culture. How it is done: (§1) Antimicrobial testing of 78 cathelicidin MPs was performed in two phases as outlined in Figure 1 . In phase I, 40 peptides (27 extant and 13 ancestral) were selected for testing based on rank (outlined above) and similarity to published marsupial cathelicidins with known antimicrobial activity ([33], [41]–[43]). These peptides were tested against nine bacteria (Staphylococcus aureus ATCC 29213 and clinical isolate, Escherichia coli ATCC 25922 and clinical isolate, Pseudomonas aeruginosa ATCC 27853 and clinical isolate, Streptococcus agalactiae ATCC 12386 and clinical isolate, Streptococcus pneumoniae ATCC 49619) and three fungi (Candida krusei ATCC 6258, Candida parapsilosis ATCC 22019, and Candida albicans clinical isolate). Details regarding these strains are available in Supplementary Table 4 . The antimicrobial activity of cathelicidins was determined as the minimum inhibitory concentration (MIC), which was the lowest concentration of cathelicidin that prevented visible bacterial or fungal growth, relative to the negative control. […] Minimum bactericidal concentration (MBC) and/or minimum fungicidal concentration (MFC) was conducted to determine microbicidal versus static action. Activity against S. aureus ATCC, E. coli ATCC, and Pseudomonas aeruginosa ATCC 27853 was examined in the presence of divalent cations to determine the impact of inhibitors.
(§2) In phase II, the remaining 38 peptides (37 extant and one ancestral) were tested against six bacteria (S. aureus ATCC and clinical isolate, E. coli ATCC and clinical isolate, and P. aeruginosa ATCC and clinical isolate). […] No further testing on phase II peptides was performed. Detailed methods for all assays are provided in subsequent sections.
(§3) Antimicrobial activity was determined using a broth microdilution susceptibility assay in 96 well polypropylene plates according to Clinical Laboratory Standards Institute guidelines M07-A and M26A as described previously ([33], [42], [43]). The bacterial and fungal isolates from humans and animals used in this study are outlined in Supplementary Table 4 . Only yeasts were included in the panel of fungi as they have been used in the susceptibility testing of eutherian ([3], [81]–[83]) and other marsupial cathelicidins previously ([33], [42], [43]). Cathelicidin mature peptides were solubilized in DMSO and serially diluted in duplicate from 128-0.25μg/mL in a final volume of 100µL. For bacteria, cathelicidins were diluted in Mueller Hinton Broth (MHB) with or without 10% lysed horse blood, and with (MH II B) or without (MHB) calcium and magnesium cations. For fungi, cathelicidins were diluted in Roswell Park Memorial Institute medium (RPMI)-1640 MOPS. Ampicillin or tetracycline were included as a positive control for Gram-positive and -negative bacteria respectively, while amphotericin B was used for fungi. A media-only negative control and growth control (no cathelicidin) were also included on each plate. Bacteria were sub-cultured on Muller Hinton agar (MHA) or sheep blood agar (BA), and fungi on Sabouraud dextrose agar (SAB), 20–24 hours prior to the test. Colonies were suspended in saline, the concentration adjusted to a 0.5 McFarland standard, and then diluted in media to a concentration of 1.0 x 10^6 cells/mL. Then, 100μL was added to each well of the cathelicidin dilution plate, giving a final inoculum density of 5 x 10^5 CFU/mL and cathelicidin concentration of 64-0.125μg/mL. Colony counts were performed on MHA/BA/SAB to confirm inoculum density. All plates were incubated at 35°C for 20–24 hours, depending on the strain.
(§4) Colonies were counted and compared to the colony count of the starting inoculum.

The subject of experiment [2] is Escherichia coli clinical isolate - animal. Put plainly: microbe, parasite or virus in culture. The procedure: as §1, §2, §3, §4
For experiment [3], the system named is Staphylococcus aureus ATCC 29213. Put plainly: microbe, parasite or virus in culture. How it is done: as §1, §2, §3, §4
Experiment [4] deals with Pseudomonas aeruginosa clinical isolate - animal. Nature of the experiment: microbe, parasite or virus in culture. The conditions noted are these: read-out: MIC P. aeruginosa. The procedure: as §1, §2, §3, §4
Experiment [5] deals with Staphylococcus aureus clinical isolate - animal. Nature of the experiment: microbe, parasite or virus in culture. How it is done:
as §1, §2, §3, §4

Experiment [6] relates to Pseudomonas aeruginosa ATCC 27853. Put plainly: microbe, parasite or virus in culture. The conditions noted are these: read-out: MIC P. aeruginosa ATCC. How it is done:
as §1, §2, §3, §4

Experiment [7] concerns Streptococcus agalactiae Clinical isolate - animal. Nature of the experiment: microbe, parasite or virus in culture. The following applies: read-out: MIC S. agalactiae. How it is done: as §1, §3, §4
Experiment [8] relates to Streptococcus agalactiae ATCC 12386. Put plainly: microbe, parasite or virus in culture. The following applies: read-out: MIC S. agalactiae ATCC. The procedure: as §1, §3, §4
Experiment [9] relates to Streptococcus pneumoniae ATCC 49619. Nature of the experiment: microbe, parasite or virus in culture. The following applies: read-out: MIC S. pneumoniae ATCC. The procedure: as §1, §3, §4
The subject of experiment [10] is six bacteria (S. aureus, E. coli, P. aeruginosa; ATCC and clinical isolate). The conditions noted are these: broth microdilution screening, phase I or II; Y/N summary over the bacteria tested; synthesized mature peptide. How it is done: as §1, §2, §3, §4
Setting [11] is: value in brackets, µM equivalent of Table 3.
[12] abbreviates: clinical isolate, value in brackets, µM equivalent of Table 3.
Setting [13] is: clinical isolate, µM equivalent of Table 3.

Turning to `CC[C@H](C)[C@H](NC(=O)[C@H](CCCCN)NC(=O)[C@H](CC(C)C)NC(=O)CNC(=O)[C@H](CC(N)=O)NC(=O)[C@@H](NC(=O)[C@H](CCCNC(=N)N)NC(=O)[C@H](CCCNC(=N)N)NC(=O)[C@H](CCCNC(=N)N)NC(=O)[C@@H](NC(=O)[C@H](CO)NC(=O)[C@H](CC(N)=O)NC(=O)[C@H](CCCNC(=N)N)NC(=O)[C@H](CC(C)C)NC(=O)[C@H](CCCCN)NC(=O)[C@H](CCCCN)NC(=O)[C@H](C)NC(=O)[C@H](CCCCN)NC(=O)[C@H](CCC(=O)O)NC(=O)[C@H](CCCCN)NC(=O)[C@@H](NC(=O)[C@@H](NC(=O)[C@H](CC(=O)O)NC(=O)[C@H](Cc1c[nH]c2ccccc12)NC(=O)[C@H](CC(C)C)NC(=O)CNC(=O)[C@H](CCCNC(=N)N)NC(=O)[C@@H](N)CCCCN)[C@@H](C)O)C(C)C)[C@@H](C)CC)C(C)C)C(=O)NCC(=O)N[C@@H](C)C(=O)N[C@@H](C)C(=O)N[C@@H](CC(=O)O)C(=O)N[C@@H](CCC(N)=O)C(=O)N[C@H](C(=O)N1CCC[C@H]1C(=O)NCC(=O)N[C@@H](Cc1c[nH]cn1)C(=O)N[C@@H](CO)C(=O)N[C@@H](CC(C)C)C(=O)O)C(C)C` [LahiCath4] (H-KRGLWDTVKEKAKKLRNSIRRRVNGLKIGAADQVPGHSL-OH), the “MBC E. coli ATCC” value in experiment [1] (ATCC 25922) turned out to be 14.5 µM (≈ 63.8 µg/mL). The MIC is given as 7.2 µM in [1] (ATCC 25922, read-out: MIC E. coli ATCC); 14.5 µM in experiment [1] (ATCC 25922, read-out: MIC in the presence of cations E. coli ATCC); 3.6 µM in experiment [2] (clinical isolate - animal); above 14.5 µM in [3] (ATCC 29213, read-out: MIC S. aureus ATCC); above 14.5 µM in experiment [4] (clinical isolate - animal); above 14.5 µM in experiment [5] (clinical isolate - animal, read-out: MIC S. aureus). In addition, the MIC in [6] (ATCC 27853), in experiment [7] (clinical isolate - animal), in experiment [8] (ATCC 12386) and in experiment [9] (ATCC 49619) was above 14.5 µM in each case. In experiment [2] (clinical isolate - animal), the “MBC E. coli” value is on record as 14.5 µM (≈ 63.8 µg/mL). The “MIC in the presence of cations E. coli” value in experiment [2] (clinical isolate - animal) amounted to 14.5 µM.

Turning to `CC1(C)S[C@@H]2[C@H](NC(=O)[C@H](N)c3ccccc3)C(=O)N2[C@H]1C(=O)O` [Ampicillin, reference compound], the MIC is 4 µg/mL in experiment [1] (Escherichia coli, ATCC25922, MHB without cations, 5 x 10^5 CFU/mL, 35°C 20–24 hours, duplicate, read-out: MIC E. coli ATCC); 8 µg/mL in experiment [1] (Escherichia coli, ATCC25922, superscript value, cation-adjusted Mueller Hinton broth, read-out: MIC in the presence of cations E. coli ATCC); 22.8 µM in [1] (Escherichia coli, ATCC25922, superscript value, cation-adjusted Mueller Hinton broth, µM equivalent, read-out: MIC in the presence of cations E. coli ATCC); 11.4 µM in experiment [1] (Escherichia coli, ATCC25922, µM equivalent of Table 3, read-out: MIC E. coli ATCC); above 64 µg/mL in experiment [2] (Escherichia coli, clinical isolate, MHB without cations, 5 x 10^5 CFU/mL, 35°C 20–24 hours, duplicate); above 183 µM in [2] (Escherichia coli, clinical isolate, µM equivalent of Table 3). The MIC in experiment [3] (Staphylococcus aureus, ATCC29213, MHB without cations, 5 x 10^5 CFU/mL, 35°C 20–24 hours, duplicate, 64-0.125μg/mL, read-out: MIC S. aureus ATCC) came out at 1 µg/mL; in experiment [3] (Staphylococcus aureus, ATCC29213, superscript value, cation-adjusted Mueller Hinton broth (calcium and magnesium), read-out: MIC in the presence of cations S. aureus ATCC), 2 µg/mL; in [3] (Staphylococcus aureus, ATCC29213, superscript value, cation-adjusted Mueller Hinton broth, µM equivalent of Table 3, read-out: MIC in the presence of cations S. aureus ATCC), 5.7 µM; in experiment [3] (Staphylococcus aureus, ATCC29213, µM equivalent of Table 3, read-out: MIC S. aureus ATCC) it was 2.8 µM; in [5] (Staphylococcus aureus, clinical isolate, MHB without cations, 5 x 10^5 CFU/mL, 35°C 20–24 hours, duplicate, read-out: MIC S. aureus), 0.25 µg/mL; in experiment [5] (Staphylococcus aureus, clinical isolate, superscript value, cation-adjusted Mueller Hinton broth, read-out: MIC in the presence of cations S. aureus), 0.25 µg/mL. The MIC in [5] (Staphylococcus aureus, clinical isolate, superscript value, cation-adjusted Mueller Hinton broth, µM equivalent, read-out: MIC in the presence of cations S. aureus) was determined as 0.7 µM; in experiment [5] (Staphylococcus aureus, clinical isolate, µM equivalent of Table 3, read-out: MIC S. aureus), 0.7 µM; in experiment [7] (Streptococcus agalactiae, clinical isolate, phase I peptides only, 5 x 10^5 CFU/mL, 35°C 20–24 hours, duplicate), 0.25 µg/mL; in [7] (Streptococcus agalactiae, clinical isolate, µM equivalent of Table 3), 0.7 µM; in [8] (Streptococcus agalactiae, ATCC12386, phase I peptides only, 5 x 10^5 CFU/mL, 35°C 20–24 hours, duplicate), 0.25 µg/mL; in experiment [8] (Streptococcus agalactiae, ATCC12386, µM equivalent of Table 3), 0.7 µM. In addition, the MIC was above 64 µg/mL in [9] (Streptococcus pneumoniae, ATCC49619, phase I peptides only, 5 x 10^5 CFU/mL, 35°C 20–24 hours, duplicate) and above 183 µM in experiment [9] (Streptococcus pneumoniae, ATCC49619, µM equivalent of Table 3).

Consider “KKTRTKPKNSIRRRIKGFGIGTIILVPL [MagiCath6, predicted eastern grey kangaroo cathelicidin mature peptide]”, for which the MBC E. coli ATCC in [1] (setting [11]) stood at 8.8 µM. Further, the MIC E. coli ATCC in experiment [1] (µM equivalent of Table 3) came out at 8.8 µM. For the same molecule, the MBC E. coli in experiment [2] (setting [12]) is 17.6 µM. Also, the MIC E. coli in experiment [2] (setting [13]) came out at 17.6 µM. The MBC S. aureus ATCC in [3] (setting [11]) was 17.6 µM. The MIC S. aureus ATCC in experiment [3] (µM equivalent of Table 3) amounted to 17.6 µM. The MIC in experiment [4] (setting [13]) and in experiment [6] (µM equivalent of Table 3) was above 17.6 µM each time. The MBC S. aureus in [5] (setting [12]) amounted to 17.6 µM. Also, in [5] (setting [13]), the MIC S. aureus turned out to be 17.6 µM. Also, in experiment [10], the “Antibacterial (MIC <64ug/mL)” value is given as “Y (Antibacterial (MIC <64ug/mL))”.

Consider “RTLLRRVGEKVKTRFIAALEKLIDTFLP [MagiCath3, predicted eastern grey kangaroo cathelicidin mature peptide]”, for which, in [1] (setting [11]), the MBC E. coli ATCC was above 14.3 µM. Also, the MIC E. coli ATCC in [1] (µM equivalent of Table 3) was found to be 14.3 µM. For the same molecule, the MIC in experiment [2] (setting [13]) is given as above 14.3 µM; in experiment [3] (µM equivalent of Table 3, read-out: MIC S. aureus ATCC), above 14.3 µM; in [4] (setting [13]), above 14.3 µM; in experiment [5] (clinical isolate, µM equivalent of Table 3, read-out: MIC S. aureus) it was above 14.3 µM; in experiment [6] (µM equivalent of Table 3), above 14.3 µM. Besides, the “Antibacterial (MIC <64ug/mL)” value in [10] is on record as “Y (Antibacterial (MIC <64ug/mL))”.
